# Measurements from patent publication US10787640B2, “Producing mesodermal cell types and methods of using the same” (The Board of Trustees of the Leland Stanford Junior …, priority 2015, dated 2020).
# B1: IL6RA: soluble IL6 receptor ectodomain (protein)
# chain: LAPRRCPAQEVARGVLTSLPGDSVTLTCPGVEPEDNATVHWVLRKPAAGSHPSRWAGMGRRLLLRSVQLHDSGNYSCYRAGRPAGTVHLLVDVPPEEPQLSCFRKSPLSNVVCEWGPRSTPSLTTKAVLLVRKFQNSPAEDFQEPCQYSQESQKFSCQLAVPEGDSSFYIVSMCVASSVGSKFSKTQTFQGCGILQPDPPANITVTAVARNPRWLSVTWQDPHSWNSSFYRLRFELRYRAERSKTFTTWMVKDLQHHCVIHDAWSGLRHVVQLRAQEEFGQGEWSEWSPEAMGTPWTESRSPPAENEVSTPMQALTTNKDDDNILFRDSANATSLPVQDSSSVPLP
# Test system: day 5 hematopoietic intermediates
# Experiment: Day 5-7 continued differentiation of hematopoietic intermediates, factor withholding
# Type: cell-based, human
# Conditions: individually withholding the factor from the 8 factors, 48 hours
# Protocol: SOX17^mCherry/+ H9 hESCs (referred to as SOX17-mCherry hESCs throughout this study) were routinely propagated in mTeSR1 (StemCell Technologies)+1% penicillin/streptomycin. They were passaged ˜1:12-1:25 as fine clumps using Accutase (Gibco) onto plates precoated with a Geltrex substratum (Gibco) in mTeSR1 medium supplemented with thiazovivin ([…]; a ROCK inhibitor). After overnight plating, hESCs were washed (DMEM/F12) and differentiated towards posterior PS using BMP4 (15-40 ng/mL, R&D Systems), CHIR99021 ([…]), FGF2 (20 ng/mL, Invitrogen) and PIK90 (100 nM, Calbiochem) for 24 hours, with the optional inclusion of Activin (30 ng/mL, R&D Systems) to induce mid PS. Day 1 mid or posterior PS was subsequently washed (DMEM/F12) and further differentiated using BMP4 (40 ng/mL), GDC-0941 (0.25-2.5 μM, Cellagen Technology), Forskolin (10 μM, Tocris), SB-505124 ([…]), VEGF (100 ng/mL, R&D Systems), XAV939 (1 μM, Tocris) and ascorbic acid-2-phosphate (200 μg/mL, Sigma) for 24 hours. Day 2 cultures were further directed into the definitive hematopoietic lineage/hemogenic precursors by Activin A (15 ng/mL), GDC-0941 (0.25-2.5 μM), VEGF (100 ng/mL), XAV939 (1 μM) and ascorbic acid-2-phosphate (200 μg/mL) for 24 hours. Day 3 definitive hematopoietic progenitors were subsequently differentiated into early Runx1^lowGfi1^low hemogenic intermediates through day 4-5 treatment with BMP4 (50 ng/mL), TTNPB (500 nM), VEGF (100 ng/mL) and XAV939 (1 μM) for 48 hours, supplemented with SB-505124 (2 μM) on day 5. Day 5 populations were then dissociated into single cells, counted and reaggregated in individual wells of a low-adhesion V-bottom or U-bottom 96-well plate (e.g., Thermo Fisher, catalog no. 249952) with ˜15,000-20,000 cells seeded per well. Aggregates were cultured for 48 additional hours until day 7 in BMP4 (50 ng/mL), TTNPB (500 nM), VEGF (100 ng/mL), XAV939 (1 μM), SB-505124 (2 μM), SCF (25-50 ng/mL, R&D Systems), IL6 (10 ng/mL, R&D Systems) and IL6RA (250-1000 ng/mL, R&D Systems). All differentiation was conducted in serum-free CDM2 fully-defined basal media.
row,Molecule,GFI1B expression
1,IL6: IL6 ligand,strongly diminished
2,SCF: SCF protein signaling through the KIT receptor,strongly diminished
3,VEGF,did not markedly impair GFI1B expression
4,B1,strongly diminished

# Same assay, conditions: withholding the factor
row,Molecule,vein marker NR2F2 expression
1,VEGF,increased expression of the vein marker NR2F2

# Test system: hESC-derived cardiac mesoderm
# Experiment: Cardiac mesoderm differentiation into cardiovascular fates, qPCR
# Type: cell-based, human
# Conditions: BMP4 30 ng/mL+XAV939 1 μM with FGF2 or FGF receptor antagonists at 100 nM, 48 hours
# Protocol: Day 2 lateral mesoderm was differentiated into day 4 cardiac mesoderm by treating them with 1 μM A8301+30 ng/mL BMP4+1 μM C59+20 ng/mL FGF2 for 48 hrs, or alternatively, with 1 μM A8301+30 ng/mL BMP4+20 ng/mL FGF2 for 24 hrs followed by 25 ng/mL Activin+30 ng/mL BMP4+1 μM C59 for the next 24 hrs (schema in FIG. 5E; positive effect of mid-stage Activin shown in FIG. 12K). Subsequently, day 4 cardiac mesoderm was briefly washed (DMEM/F12) and treated with 30 ng/mL BMP4+1 μM XAV939+200 μg/mL 2-phospho-ascorbic acid (Sigma) for 48-96 hrs to yield day 6-8 cardiomyocyte-containing populations. Spontaneously contracting cardiomyocyte foci were evident from day 8 onwards.
# C) To reveal the possible identity of non-cardiac mesoderm lineages that were contaminating cardiac mesoderm-containing cultures, NKX2.5-GFP hESCs were differentiated towards mid primitive streak (day 1) and were differentiated towards a heterogeneous population containing cardiac mesoderm (day 3) by treatment with SB-505124+BMP4+C59 (without FGF2) on days 2-3 of differentiation. FACS was performed on day 3 to purify either NKX2.5-GFP^+ or NKX2.5-GFP^− cells (top subpanels) which were sorted for qPCR (bottom subpanels). Gene expression was normalized to expression of a gene in the NKX2.5-GFP^+ fraction (dotted line). D) Timecourse of gene expression in hESCs differentiating towards mid primitive streak and lateral mesoderm, with treatment by SB-505124+BMP4+C59 on days 2-3 of differentiation. […] G) To assess whether a stabilized vitamin C analog (ascorbic acid-2-phosphate) (AA2P) enhanced cardiac mesoderm differentiation into cardiomyocytes, day 4 hESC-derived cardiac mesoderm was exposed to BMP4 (30 ng/mL)+XAV939 (1 μM) for 48 hours in the presence or absence of 200 μg/mL AA2P and qPCR was conducted of day 6 populations; qPCR data were normalized such that expression values in the highest-expressing sample was normalized=1.0. […] J) In the mouse embryo, endocardium (progenitors to heart-affiliated endothelium) are marked by transient coexpression of pan-heart marker Nkx2.5 together with endothelial markers (Ferdous et al., 2009; Stanley et al., 2002).
row,Molecule,cardiovascular fate promoted
1,CCN1CCN(c2ccc(Nc3cc(N(C)C(=O)Nc4c(Cl)c(OC)cc(OC)c4Cl)ncn3)cc2)CC1 [BGJ398],promoted (pro)epicardium
2,"CCN(CC)CCCCNc1ncc2cc(-c3cc(OC)cc(OC)c3)c(NC(=O)NC(C)(C)C)nc2n1 [PD173074, N-[2-[[4-(Diethylamino)butyl]amino]-6-(3,5-dimethoxyphenyl)pyrido[2,3-d]pyrimidin-7-yl]-N′-(1,1-dimethylethyl)urea]",promoted (pro)epicardium
3,AZD4547,promoted (pro)epicardium
4,"FGF2: FGF agonist, FGF family ligand",promoted endocardium
